Data as given in patent US20210315841A1, “CYCLOBENZAPRINE TREATMENT FOR SEXUAL DYSFUNCTION” (TONIX PHARMACEUTICALS HOLDING CORP., priority 2020, published 2021).
Counter-ions that a name gives are not always drawn.

What was measured:
[1] = tested on: females with predominantly civilian PTSD; details: female completers, 5.6 mg dose (N=58) vs placebo (N=55), 12 weeks
Protocol: (§1) Three randomized, placebo-controlled and double-blind clinical trials of the above described 5.6 mg cyclobenzaprine-HCl sublingual formulation (2×2.8 mg tablets) were performed, a Phase 2 study and a Phase 3 study in military-related PTSD, and a Phase 3 study in predominantly civilian PTSD. […] The present retrospective analysis examined the activity of the cyclobenzaprine-HCl sublingual formulation on the Changes in Sexual Functioning Questionnaire short form (CSFQ-14) in the two Phase 3 studies.
(§2) In the Phase 3 study in predominantly civilian PTSD, the inclusion criteria were broadened to include civilian participants with current PTSD, as determined by the CAPS-5. Accordingly, this study included 94% civilian trauma with a minimum baseline severity score of >33 on the CAPS-5. […] Thus, analyses were conducted on the interim analysis sample of 252 participants in the military Phase 3 study (89% male [n=225 M; n=27 F]; 100% military PTSD) and […] subjects in the civilian Phase 3 study (79% female [n=129 F; n=34 M]; 94% civilian PTSD).
(§3) The CSFQ-14 is a validated 14-item measure (Keller, McGarvey, Clayton, 2006) that has male and female versions which were analyzed separately. In addition to a total sexual functioning score, there are five sub-scales: desire/frequency, desire/interest, arousal/excitement, orgasm/complete, and pleasure. The items range on 5-point Likert scale from (never) to (every day). Higher scores reflect greater levels of sexual functioning.

[2] = tested on: females with military-related PTSD; details: 5.6 mg dose (N=8) vs placebo (N=16), 12 weeks
Protocol: (§4) Methods: In this 12-week, multicenter, adaptive design, randomized controlled fixed-dose trial, 5.6 mg cyclobenzaprine-HCl (2×2.8 mg sublingual tablets, comprising a 75%±2% cyclobenzaprine-HCl and 25%±2% mannitol eutectic and a potassium phosphate dibasic anhydrous basifying agent) taken daily at bedtime was compared to placebo for the treatment of PTSD at 45 U.S. sites. […] A pre-planned interim analysis was conducted when about half the originally planned sample of 550 participants had outcome data.
(§5) The modified intention-to-treat (mITT) population, which included all randomized subjects with at least one post-baseline CAPS-5, included 125 participants treated with 5.6 mg dose per day the above cyclobenzaprine-HCl sublingual formulation and 127 participants on placebo were studied.
Sexual functioning was measured by Changes in Sexual Functioning Questionnaire short-form (CSFQ-14) which is a validated 14-item measure (Keller, McGarvey, Clayton, 2006). Parallel gender-specific versions are administered to males (CSFQ-14-M) and females (CSFQ-14-F), and each sex was analyzed separately. In addition to a total sexual functioning score, there are five sub-scales: desire/frequency, desire/interest, arousal/excitement, orgasm/complete, and pleasure. The scales range from (never) to (every day) and higher scores reflect greater levels of sexual functioning.
as §2, §3

participants with PTSD [3] = details: 5.6 mg sublingual dose, both Phase 3 studies
Protocol: as §1, §2

[4] = tested on: participants with military-related PTSD
Protocol: as §4, §5

[5] = tested on: females with military-related PTSD; details: female subgroup (10 active, 17 placebo), 5.6 mg per day sublingual, after 12 weeks of treatment
Protocol: as §4, §5

[6] = tested on: participants with military-related PTSD; details: Phase 2 study, drug and placebo groups
Protocol: as §1

participants with PTSD [7] = details: 5.6 mg dose, all three trials (Phase 2 and two Phase 3)
Protocol: as §1

[8] = 5.6 mg sublingual daily, military Phase 3 study

## CN(C)CCC=C1c2ccccc2C=Cc2ccccc21 [cyclobenzaprine-HCl]
[1]
  CSFQ-14-F arousal/excitement subscale, Hedges' g effect size vs placebo: 0.33
  CSFQ-14-F desire/frequency subscale, Hedges' g effect size vs placebo: 0.21
  CSFQ-14-F desire/interest subscale, Hedges' g effect size vs placebo: 0.23
  CSFQ-14-F orgasm/completion subscale, Hedges' g effect size vs placebo: 0.29
  CSFQ-14-F pleasure subscale, Hedges' g effect size vs placebo: 0.19
[1]; p=0.07
  CSFQ-14-F total score, Hedges' g effect size vs placebo: 0.37
[2]
  CSFQ-14-F arousal/excitement subscale, Hedges' g effect size vs placebo: 0.55
  CSFQ-14-F desire/frequency subscale, Hedges' g effect size vs placebo: 0.46
  CSFQ-14-F desire/interest subscale, Hedges' g effect size vs placebo: 0.63
  CSFQ-14-F orgasm/completion scale, effect vs placebo: No effect
  CSFQ-14-F pleasure subscale, Hedges' g effect size vs placebo: 0.54
  CSFQ-14-F total score, Hedges' g effect size vs placebo: 0.49
Participants with PTSD [3]
  severity of oral hypoaesthesia (most frequent AE): never rated as severe
  severity of somnolence (most common systemic AE): never rated as severe
Participants with PTSD [3]; generally transient
  duration of oral hypoaesthesia (tongue/mouth numbness), the most frequent AE, post administration: < 60 min
[4]; 5.6 mg dose group, military Phase 3 study (placebo: two)
  participants with at least one AE leading to study discontinuation: 8 participants
[4]; 5.6 mg sublingual daily at bedtime, military Phase 3 study, generally transient
  duration of oral hypoaesthesia (tongue/mouth numbness), the most frequent AE, post administration: < 60 min
[4]; [8]
  severity of oral hypoaesthesia (most frequent AE): never rated as severe
  severity of somnolence (most common systemic AE): never rated as severe
[5]
  observed mean improvement in CAPS-5 over placebo: −9.1 units
[6]
  rates of adverse events related to sexual function: very low rates
Participants with PTSD [7]
  activity on clinician- and patient-rated global PTSD symptoms (CGI and PGIC): encouraging activity
